This is an account of results in patent EP2676666A1, “Compounds for use in diagnosis or therapy of vulnerable atherosclerotic plaques” (Eidgenössische Technische Hochschule Zürich (ETH), priority 2012, dated 2013).

For this test, the system named is human atherosclerotic plaques. Put plainly: Autoradiography binding study on human atherosclerotic plaque sections. The conditions noted are these: 2.5 nM; for maximal bound ^11C-Compound 4: average value (red line), 20 min, room temperature, values normalized to vulnerable plaque 8. Here is the method: Compound 4 was labeled with ^11C (specific activity ~350 GBq/µmol) and human atherosclerotic sections were incubated with 2.5 nM for 20 min, room temperature. Nonspecific binding was determined in the presence of excess nonradioactive Compound 4 (100 µM). After washing to remove unspecific bound ^11C-Compound 4, slides were exposed to a radiosensitive film (BAS-5000 Fujifilm) for 30 min. Calibration standards (2.5 - 0.02 nM) were included in the cassette. Films were developed using an automatic film processor (BAS 5000, Fuji) Quantitative analysis was performed using a computerized image analysis system (AIDA Image Analyzer Software). Optical density readings, corrected for background, were made and values standardized against the linear portion of a curve generated using standards and expressed as maximal bound ^11C-Compound 4. Values were normalized to patient "vulnerable plaque 8" (Fig. 5).

`[11CH3]N1CCC(NC(=O)c2ccc(-n3nc4c5cccc(F)c5[nH]nc-4c3=O)cc2)CC1` [^11C-Compound 4]: the “maximal bound ^11C-Compound 4” value reads like this: (Fig. 5 (B)) 0.7; (Fig. 5 (C), stable plaques) 0.15; (Fig. 5 (C), vulnerable plaques) 1.2. Under “conclusion in words from the autoradiography”, the “binding to vulnerable plaques compared to stable plaques” value is on record as “higher affinity to vulnerable plaques compared to stable plaques”.
